Assay results as given in patent US10624972B2, “Conjugates for treating diseases” (priority 2015, dated 2020).
“Also recorded” adds a separate entry of the source. Like-named read-outs stand apart in the source and are kept apart here.

Experiments:
[1] = Toxicity as measured by weight loss (test animal total body weight); assay type: in vivo, mice
Description: METHOD. Toxicity as Measured by Weight Loss. The percentage weight change of the test animals was determined on selected days post-tumor inoculation (PTI), and during dosing. The results were graphed.

KB cells = assay: cells; assay type: cell-based, Human
Description: METHOD. Inhibition of Cellular DNA Synthesis. The conjugates described herein were evaluated using an in vitro cytotoxicity assay that predicted the ability of the drug to inhibit the growth of the corresponding targeted cells, such as, but not limited to the following
It is to be understood that the choice of cell type can be made on the basis of the susceptibility of those selected cells to the drug that forms the conjugate, and the relative expression of the cell surface receptor or target antigen. The test conjugates were conjugates of a cell surface receptor or target antigen binding compound and PBD prodrugs, poly-PBD prodrugs, and mixed PBDs, as described herein. The test cells were exposed to varying concentrations of the conjugates, and optionally also in the absence or presence of at least a 100-fold excess of the unconjugated cell surface receptor or target antigen binding compound for competition studies to assess activity as being specific to the cell surface receptor or target antigen.
EXAMPLE. Conjugates of PBD prodrugs, poly-PBD prodrugs, and mixed PBDs described herein were active against KB cells. The activity was mediated by the folate receptor as indicated by competition experiments using co-administered folic acid. KB cells were exposed for up to 7 h at 37° C. to the indicated concentrations of folate-drug conjugate in the absence or presence of at least a 100-fold excess of folic acid. The cells were then rinsed once with fresh culture medium and incubated in fresh culture medium for 72 hours at 37° C. Cell viability was assessed using a ^3H-thymidine incorporation assay. For conjugates described herein, dose-dependent cytotoxicity was generally measurable, and in most cases, the IC50 values (concentration of drug conjugate required to reduce ^3H-thymidine incorporation into newly synthesized DNA by 50%) were in the low nanomolar range.

MDA-MB-231 tumors = assay: TNBC tumor assay (MDA-MB-231 xenograft); assay type: in vivo, nu/nu mice; settings: 2 μmol/kg TIW for two weeks
Description: General. […] A PR is observed where tumor volume, as defined herein, decreases from a previous high during the observation period, though regrowth may occur. A CR is observed where tumor volume, as defined herein, decreases to zero during the observation period, though regrowth may occur.
METHOD EXAMPLE. TNBC Tumor Assay. Triple negative breast cancer (TNBC) is a subtype characterized by lack of gene expression for estrogen, progesterone and Her2/neu. TNBC is difficult to treat, and the resulting death rate in patients is reportedly disproportionately higher than for any other subtype of breast cancer. A TNBC xenograft model was generated in an analogous way to the KB and M109 models described herein by implanting MDA-MB-231 breast cancer cells in nu/nu mice. […] Test animals (5/group) were injected intravenously, generally three times a week (TIW), for 2-3 weeks with varying doses, such as with 1 μmol/kg to 5 μmol/kg, of the drug delivery conjugate or with an equivalent dose volume of PBS (control), unless otherwise indicated. Dosing solutions were prepared fresh each day in PBS and administered through the lateral tail vein of the mice.

KB-CR2000 tumors = assay: Cisplatin therapy of cisplatin-resistant KB-CR2000 tumors; assay type: in vivo; settings: high, toxic dose of cisplatin
Description: METHOD. Human cisplatin-resistant cell line.

[2] = KB tumor study, 2 μmol/kg TIW for two weeks

Compound: C=C1C[C@H]2C(=O)Nc3cc(OCCCCCOc4cc(N)c(C(=O)N5CC(=C)C[C@H]5C5OCCN5C(=O)OCCSSC[C@H](NC(=O)[C@H](CC(=O)O)NC(=O)[C@H](CC(=O)O)NC(=O)[C@H](CCCNC(=N)N)NC(=O)[C@H](CC(=O)O)NC(=O)CC[C@H](NC(=O)c5ccc(NCc6cnc7nc(N)[nH]c(=O)c7n6)cc5)C(=O)O)C(=O)O)cc4OC)c(OC)cc3C(=O)N2C1 (stereo partly drawn) [EC1744]
- toxicity as evidenced by test animal total body weight [1, 2]: Toxicity was not observed
- toxicity as evidenced by test animal total body weight ([1]; MDA-MB-231 tumor study, 2 μmol/kg TIW for two weeks): Toxicity was not observed
- IC50 (KB cells; 3 h): 1.2 nM
- MDA-MB-231 tumors compared to untreated control (MDA-MB-231 tumors): decreases MDA-MB-231 tumors; also recorded: decreased triple negative breast cancer (TNBC) MDA-MB-231 tumors
- complete response, number of test animals, MDA-MB-231 tumors (MDA-MB-231 tumors): 5/5
- cure, number of test animals, MDA-MB-231 tumors (MDA-MB-231 tumors): 4/5

Compound: C=C1C[C@H]2C=Nc3cc(OCCCCCOc4cc(N)c(C(=O)N5CC(=C)C[C@H]5C5OCCN5C(=O)OCCSSC[C@H](NC(=O)[C@H](CC(=O)O)NC(=O)[C@H](CC(=O)O)NC(=O)[C@H](CCCNC(=N)N)NC(=O)[C@H](CC(=O)O)NC(=O)CC[C@H](NC(=O)c5ccc(NCc6cnc7nc(N)[nH]c(=O)c7n6)cc5)C(=O)O)C(=O)O)cc4OC)c(OC)cc3C(=O)N2C1 (stereo partly drawn) [EC1788]
- toxicity as evidenced by test animal total body weight ([1]; KB tumor study, 0.2 μmol/kg TIW for two weeks): Minor toxicity was observed
- toxicity as evidenced by test animal total body weight ([1]; KB tumor study, 0.4 μmol/kg BIW for 2 weeks): Minor toxicity was observed
- IC50 (KB cells; KB cells, 3H-thymidine incorporation, read-out: IC50 KB Cells): 0.18 nM

Compound: C=C1C[C@@H](C2OCCN2C(=O)OCCSSC[C@@H](NC(=O)[C@H](CCC(=O)NC[C@H](O)[C@@H](O)[C@H](O)[C@H](O)CO)NC(=O)[C@@H](CCC(=O)O)NC(=O)[C@H](CCC(=O)NC[C@H](O)[C@@H](O)[C@H](O)[C@H](O)CO)NC(=O)[C@@H](CCC(=O)O)NC(=O)[C@H](CCC(=O)NC[C@H](O)[C@@H](O)[C@H](O)[C@H](O)CO)NC(=O)CC[C@H](NC(=O)c2ccc(NCc3cnc4nc(N)[nH]c(=O)c4n3)cc2)C(=O)O)C(=O)O)N(C(=O)c2cc(OC)c(OCCCCCOc3ccc(-c4nc5ccc(-c6nc7cc(N8CCN(C)CC8)ccc7[nH]6)cc5[nH]4)cc3)cc2N)C1 (stereo partly drawn) [EC1879]
- toxicity as evidenced by test animal total body weight ([1]; KB tumor study, 2 μmol/kg TIW for 1 week): Minor toxicity was observed
- toxicity as evidenced by test animal total body weight [1, 2]: Toxicity was not observed
- IC50 (KB cells; 3 h): 0.56 nM

Compound: C=C1C[C@@H](C2OCCN2C(=O)OCCSSC[C@@H](NC(=O)[C@H](CCC(=O)NC[C@H](O)[C@@H](O)[C@H](O)[C@H](O)CO)NC(=O)[C@@H](CCC(=O)O)NC(=O)[C@H](CCC(=O)NC[C@H](O)[C@@H](O)[C@H](O)[C@H](O)CO)NC(=O)[C@@H](CCC(=O)O)NC(=O)[C@H](CCC(=O)NC[C@H](O)[C@@H](O)[C@H](O)[C@H](O)CO)NC(=O)CC[C@H](NC(=O)c2ccc(NCc3cnc4nc(N)[nH]c(=O)c4n3)cc2)C(=O)O)C(=O)O)N(C(=O)c2cc(OC)c(OCCCCCOc3cc(N)c(C(=O)N4CC(=C)C[C@H]4C4OCCN4C(=O)OCC4c5ccccc5-c5ccccc54)cc3OC)cc2N)C1 (stereo partly drawn) [EC1884]
- toxicity as evidenced by test animal total body weight [1, 2]: Toxicity was not observed
- IC50 (KB cells; 3 h): 0.36 nM

Compound: N.N.[Cl][Pt][Cl] [cisplatin]
- tumor response to cisplatin therapy (KB-CR2000 tumors): did not produce even a single partial response
